Source: ChEMBL document CHEMBL3352105, “Design, synthesis and SAR analysis of antitumour styryl lactones related to (+)-crassalactones B and C” (Eur J Med Chem, 2014)

Key:
Jurkat = assay: Cytotoxicity against human Jurkat cells after 72 hrs by MTT assay; assay type: functional, cell-based
MRC5 = assay: Cytotoxicity against human MRC5 cells after 72 hrs by MTT assay; assay type: cell-based; details: MRC5, 72 h
[1] = Cytotoxicity against human HL60 cells after 72 hrs by MTT assay; assay type: functional, cell-based; details: HL-60, 72 h
HeLa = assay: Cytotoxicity against human HeLa cells after 72 hrs by MTT assay; assay type: functional, cell-based
Raji [2] = assay: Cytotoxicity against human Raji cells after 72 hrs by MTT assay; assay type: functional, cell-based
K562 = assay: Cytotoxicity against human K562 cells after 72 hrs by MTT assay; assay type: functional, cell-based; details: K562, 72 h
MDA-MB-231 = assay: Cytotoxicity against human MDA-MB-231 cells after 72 hrs by MTT assay; assay type: functional, cell-based; details: MDA-MB-231, 72 h
MCF7 = assay: Cytotoxicity against human MCF7 cells after 72 hrs by MTT assay; assay type: functional, cell-based; details: MCF7, 72 h
HL-60 = assay: Potency index, ratio of IC50 for doxorubicin to IC50 for test compound against human HL60 cells after 72 hrs by MTT assay; assay type: functional
Raji [3] = assay: Potency index, ratio of IC50 for doxorubicin to IC50 for test compound against human Raji cells after 72 hrs by MTT assay; assay type: functional

| SMILES | IC50 (Jurkat) [µM] | IC50 (MRC5) [µM] | IC50 [1] [µM] | IC50 (HeLa) [µM] | IC50 (Raji [2]) [µM] | IC50 (K562) [µM] | IC50 (MDA-MB-231) [µM] | IC50 (MCF7) [µM] | Ratio IC50 (HL-60) | Ratio IC50 (Raji [3]) |
| --- | --- | --- | --- | --- | --- | --- | --- | --- | --- | --- |
| COc1ccc(/C=C/C(=O)O[C@@H]2[C@H]3OC(=O)C[C@H]3O[C@@H]2[C@H](O)c2ccccc2)cc1 | 13.4 | > 100 | 50.2 | 18.6 | 5.69 | 4.21 | > 100 | 11.1 | – | – |
| O=C(/C=C/c1ccc([N+](=O)[O-])cc1)O[C@@H]1[C@H]2OC(=O)C[C@H]2O[C@@H]1[C@H](O)c1ccccc1 | 44.7 | > 100 | 48.2 | 21.4 | 8.23 | 14.6 | 5.36 | > 100 | – | – |
| O=C(/C=C/c1ccc(F)cc1)O[C@@H]1[C@H]2OC(=O)C[C@H]2O[C@@H]1[C@H](O)c1ccccc1 | 17.6 | > 100 | 11.5 | 29.9 | 11.1 | 10.2 | 25.7 | 14.9 | – | – |
| COc1ccc(/C=C/C(=O)O[C@H](c2ccccc2)[C@H]2O[C@@H]3CC(=O)O[C@@H]3[C@H]2O)cc1 | 42.3 | > 100 | 41.4 | 24.9 | 4.37 | 3.25 | > 100 | 12.3 | – | – |
| O=C(/C=C/c1ccc([N+](=O)[O-])cc1)O[C@H](c1ccccc1)[C@H]1O[C@@H]2CC(=O)O[C@@H]2[C@H]1O | 10.5 | > 100 | 14.3 | 35.7 | 16.4 | 2.25 | 33.4 | 5.23 | – | – |
| O=C(/C=C/c1ccc(F)cc1)O[C@H](c1ccccc1)[C@H]1O[C@@H]2CC(=O)O[C@@H]2[C@H]1O | 18.1 | > 100 | 9.45 | 24.1 | 14.5 | 4.58 | 29.6 | 18.7 | – | – |
| O=C(/C=C/c1ccccc1)O[C@@H]1[C@H]2OC(=O)C[C@H]2O[C@@H]1[C@@H](O)c1ccccc1 | 0.87 | > 100 | 0.02 | 2.47 | 14.5 | 3.33 | 8.64 | 0.22 | 46 | – |
| COc1ccc(/C=C/C(=O)O[C@@H]2[C@H]3OC(=O)C[C@H]3O[C@@H]2[C@@H](O)c2ccccc2)cc1 | 1.12 | > 100 | 0.11 | 3.21 | 2.34 | 2.63 | 7.32 | 20.2 | – | – |
| O=C(/C=C/c1ccc([N+](=O)[O-])cc1)O[C@@H]1[C@H]2OC(=O)C[C@H]2O[C@@H]1[C@@H](O)c1ccccc1 | 3.52 | > 100 | 0.36 | 1.66 | 1.02 | 1.12 | 2.64 | 56.2 | – | 3 |
| O=C(/C=C/c1ccc(F)cc1)O[C@@H]1[C@H]2OC(=O)C[C@H]2O[C@@H]1[C@@H](O)c1ccccc1 | 0.69 | > 100 | 2.11 | 4.12 | 1.74 | 0.85 | 1.32 | 84.5 | – | – |
| O=C(/C=C/c1ccccc1)O[C@@H](c1ccccc1)[C@H]1O[C@@H]2CC(=O)O[C@@H]2[C@H]1O | 1.03 | > 100 | 1.34 | 0.69 | 1.31 | 2.01 | 3.37 | 9.47 | – | – |
| COc1ccc(/C=C/C(=O)O[C@@H](c2ccccc2)[C@H]2O[C@@H]3CC(=O)O[C@@H]3[C@H]2O)cc1 | 18.6 | > 100 | 8.79 | 11 | 8.45 | 11.5 | 28.6 | 9.64 | – | – |
| O=C(/C=C/c1ccc([N+](=O)[O-])cc1)O[C@@H](c1ccccc1)[C@H]1O[C@@H]2CC(=O)O[C@@H]2[C@H]1O | 24.6 | > 100 | 10.5 | 4.01 | 4.36 | 14.2 | 64.2 | 4.15 | – | – |
| O=C(/C=C/c1ccc(F)cc1)O[C@@H](c1ccccc1)[C@H]1O[C@@H]2CC(=O)O[C@@H]2[C@H]1O | 19.6 | > 100 | 11 | 4.36 | 12.7 | 15.7 | 31.6 | 5.36 | – | – |
| O=C(/C=C/c1ccccc1)O[C@@H]1[C@H]2OC(=O)C[C@H]2O[C@@H]1[C@H](OC(=O)/C=C/c1ccccc1)c1ccccc1 | 2.65 | 48.6 | 3.33 | 12.2 | 11 | 21.4 | > 100 | > 100 | – | – |
| O=C(/C=C/c1ccccc1)O[C@@H]1[C@H]2OC(=O)C[C@H]2O[C@@H]1[C@@H](OC(=O)/C=C/c1ccccc1)c1ccccc1 | 0.31 | > 100 | 0.15 | 1.45 | 10.2 | 2.15 | 6.69 | 1.64 | – | – |
| O=C(/C=C/c1ccccc1)OC1C2OC(=O)CC2O[C@@H]1Cc1ccccc1 (single isomer, unassigned) | 0.29 | > 100 | 2.21 | 1.25 | 0.88 | 4.67 | 4.32 | 58.6 | – | – |
| COc1ccc(/C=C/C(=O)OC2C3OC(=O)CC3O[C@@H]2Cc2ccccc2)cc1 (single isomer, unassigned) | 0.84 | > 100 | 0.27 | 0.94 | 3.58 | 1.02 | 4.34 | 61 | – | – |
| O=C(/C=C/c1ccc([N+](=O)[O-])cc1)OC1C2OC(=O)CC2O[C@@H]1Cc1ccccc1 (single isomer, unassigned) | 3.74 | > 100 | 0.14 | 0.87 | 2.69 | 0.98 | 5.32 | 23.2 | – | – |
| O=C(/C=C/c1ccc(F)cc1)OC1C2OC(=O)CC2O[C@@H]1Cc1ccccc1 (single isomer, unassigned) | 2.63 | > 100 | 1.02 | 1.02 | 1.52 | 0.25 | 8.22 | 29 | – | – |
| O=C(/C=C/c1ccccc1)O[C@@H]1[C@H]([C@@H](O)c2ccccc2)O[C@H]2CC(=O)O[C@@H]12 [(+)-CRASSALACTONE B] | 0.12 | > 100 | 2.54 | 0.98 | 14.6 | 0.78 | 5.32 | 0.85 | – | – |
| O=C(/C=C/c1ccccc1)O[C@H](c1ccccc1)[C@H]1O[C@@H]2CC(=O)O[C@@H]2[C@H]1O [(+)-CRASSALACTONE C] | – | > 100 | > 100 | – | – | – | 88 | 7.34 | – | – |
| COc1cccc2c1C(=O)c1c(O)c3c(c(O)c1C2=O)C[C@@](O)(C(=O)CO)C[C@@H]3O[C@H]1C[C@H](N)[C@H](O)[C@H](C)O1 [DOXORUBICIN] | – | – | 0.92 | 0.065 | – | – | – | – | – | – |
